# “Also recorded” adds a separate entry of the source.
# Tests used:
# [1] = system: Enterococcus faecalis strain G; assay: Determination of the MIC, 24 hour turbidity assay (optical density at 650 nm); type: cell-based
# Protocol: Materials and Methods. • A Versamax™ temperature-controlled spectrophotometeric plate reader was used to continuously monitor growth of bacteria. This device accepts standard microtiter plates and maintains a constant temperature as desired. It therefore serves both as an incubator and as a plate reader that quantitatively monitors bacterial growth by following the development of turbidity in the wells. The device is supported by software which allows generation of individual growth curves for each well. • Enterococcus faecalis strain G was used. This bacterium was selected to establish a baseline to which other bacteria may be compared in the future. It is a stable strain and is streptomycin-resistant, which allows the use of this antibiotic agent in the growth media to reduce the incidence of accidental contamination with other bacterial strains. • Growth medium and conditions. The tests were conducted using Brain-Heart Infusion broth (BHI) as growth medium. This medium contained 1 mg/100 ml glucose which is approximately equivalent to serum concentration of glucose. A temperature of 37 C was maintained throughout the test. • Antibacterial agents. […] The Triclosan was initially dissolved in […] at a concentration of 10 mg/ml. […] Two types of non-woven fabric were used. The material was cut to standard size of 6 mm2. […] The growth medium contained 1 mg/100 mL glucose, which is approximately equivalent to the concentration that may be present in human blood. […] Bacteria were added at 10^6 CFU/well and the turbidity in the well was continuously monitored for up to 24 h to monitor the growth of the bacteria. Each group consisted of 8 wells with respective concentrations. Wells containing bacteria with no antibacterial agent served as a positive control. […] Bacteria were added to the same wells at time 0 and then at 24 and 48 h. Bacterial growth was monitored for 24 h after each addition. • (c) Determination of the MIC of Triclosan: The antibacterial effect of Triclosan was tested in 24 hour assays in order to define its MIC. Each well contained 200 μL of sterile growth medium. A range of Triclosan concentrations was added to respective wells. Bacteria were added at 10^6 CFU/well, and the turbidity in the well was continuously monitored for 24 h to monitor bacterial growth. Each group consisted of 8 wells with respective concentrations. Wells containing bacteria with no antibacterial agent served as a positive control. […] Each sample was attached to a special insert that allowed the material to be inserted into the wells of a microtiter plate without interfering with turbidity measurements in that well.
# [2] = GOx activity assay (o-Dianisidine/peroxidase, optical density at 490 nm); type: biochemical; settings: 0.03 mg/ml GOx
# Protocol: An assay was set up that included: • 48 mM sodium acetate buffer, pH 5.1 • 0.16 mM o-Dianisidine • 1.61% (w/v) glucose • 2 units/ml peroxidase
# The above components undergo the following reactions in combination with GOx:
# β-D-glucose+O2+H2O→D-Gluconolactone+H2O2 Reaction 1
# H2O2+o-Dianisidine(reduced)→o-Dianisidine(oxidized) Reaction 2
# The optical density of the assay at 490 nm indicates the concentration of oxidized o-Dianisidine in the assay, oxidized o-Dianisidine being the final product of Reactions 1 and 2. […] The assay was set up in a 96-well plate, in accordance with enzyme-linked immunosorbent assay (ELISA) techniques, as are known in the art. An ELISA reader, as is known in the art, was used to determine the optical density of the assay.
# An assay was set up, in accordance with the techniques described with reference to Experiment 1.
# The above components, in combination with glucose, undergo Reactions 1 and 2 described with reference to Experiment 1 hereinabove.
# Different concentrations of glucose were added to the assay, and the optical density of the assay after five minutes was measured with 490 nm light.
# The above assay was set up with sodium acetate buffer of a pH that varied from 4 to 7.7.
# [3] = system: Enterococcus faecalis strain G; settings: GOx 6 μg/well (30 μg/mL) or higher, 72 hours, bacteria added at 0, 24 and 48 h
# Protocol: Materials and Methods. • A Versamax™ temperature-controlled spectrophotometeric plate reader was used to continuously monitor growth of bacteria. This device accepts standard microtiter plates and maintains a constant temperature as desired. It therefore serves both as an incubator and as a plate reader that quantitatively monitors bacterial growth by following the development of turbidity in the wells. The device is supported by software which allows generation of individual growth curves for each well. • Enterococcus faecalis strain G was used. This bacterium was selected to establish a baseline to which other bacteria may be compared in the future. It is a stable strain and is streptomycin-resistant, which allows the use of this antibiotic agent in the growth media to reduce the incidence of accidental contamination with other bacterial strains. • Growth medium and conditions. The tests were conducted using Brain-Heart Infusion broth (BHI) as growth medium. This medium contained 1 mg/100 ml glucose which is approximately equivalent to serum concentration of glucose. […] Bacteria were added at 10^6 CFU/well and the turbidity in the well was continuously monitored for up to 24 h to monitor the growth of the bacteria. […] Bacteria were added at 10^6 CFU/well, and the turbidity in the well was continuously monitored for 24 h to monitor bacterial growth. […]
Compound,"inhibition of bacterial growth ([1]; 4 μg/well (20 μg/mL), 24 h)","MIC ([1]; Enterococcus faecalis, 24 h, read-out: minimal inhibitory concentration (MIC)) [µg/mL]","inhibition of bacterial growth ([1]; Triclosan 5 μg/well (25 μg/mL) and above, 24 h)","influence of pH on GOx activity ([2]; 1.61% (w/v) glucose, sodium acetate buffer pH 4 to 7.7)","GOx activity at glucose levels of 80-120 mg/dL ([2]; pH 5.1, after five minutes, FIG. 6A)","minimal inhibitory concentration (MIC) ([1]; 24 hour assay, BHI broth with 1 mg/100 ml glucose, 37 C, 106 CFU/well) [µg/mL]","inhibition of bacterial growth ([1]; GOx 6 μg/well (30 μg/mL) or higher, 24 h)","inhibition of bacterial growth, sustained effect [3]"
"Oc1cc(Cl)ccc1Oc1ccc(Cl)cc1Cl [Triclosan, reference compound]",failed to inhibit,25,substantially inhibitory,,,,,
glucose oxidase [GOx],failed to inhibit,,,not substantially influenced,active; also recorded: approximately constant activity,30,substantially inhibitory; also recorded: zero bacterial growth,substantially complete inhibition

# — patent publication US20100179646A1 (Rainbow Medical Ltd., priority 2009, published 2010)
